Key:
[1] = test system: Clinical isolates of P. aeruginosa from cystic fibrosis patients; experiment: Detachment of mature biofilms on peg lids, crystal violet; format: cell-based; settings: 5 ug/ml; about 40 hours; eighteen clinical isolates
Description: Clinical isolates of P. aeruginosa from cystic fibrosis patients were passed twice on tryptic soy agar with 5% sheep blood after retrieval from −80° C. and then grown overnight in CAMHB. After dilution of a culture to 0.5 McFarland in broth medium, 100 μl was transferred in triplicate to wells of a flat-bottom 96-well microtiter plate. Bacterial biofilms were formed by immersing the pegs of a modified polystyrene microtiter lid into this biofilm growth plate, followed by incubation at 37° C. for 20 hours with no movement.
Peg lids were rinsed three times in sterile water, placed onto flat-bottom microtiter plates containing biofilm inhibitors at 5 ug/ml in 100 μl of CAMHB per well and incubated for approximately 40 hours at 37° C.
Pegs were rinsed, placed in a 0.1% (wt/vol) crystal violet solution for 15 min, rinsed again, and dried for several hours. To solubilize adsorbed crystal violet, pegs were incubated in 95% ethanol (150 μl per well of a flat-bottom microtiter plate) for 15 min. The absorbance was read at 590 nm on a plate reader. The wells containing asiatic acid were compared to negative controls. Negative controls were prepared as stated above but without asiatic acid.

[2] = Bladder concentrations in rats after oral dose; settings: rat, in vivo, po, 50 mg/kg
Description: Pharmacokinetic studies of asiatic acid and madecassic acid in rats were performed separately. Asiatic acid and madecassic acid were evaluated at 50 mg/kg (oral). Two animals were assigned to each group. Prior to dosing, a baseline blood sample was taken from each animal. At time zero, asiatic acid and madecassic acid, a single bolus dose in 50% Labrasol (Gattefosse) was given to each animal. Bladders were analyzed at 24 hours. Concentrations of both asiatic acid and madecassic acid in the bladder were approximately 30 μg/g at 24 hours.

E. coli UTI89[pCOMGFP] = experiment: Biofilm pods / intracellular bacterial communities (IBC) in mouse bladders, confocal microscopy; format: in vivo, C3H/HeN mice
Description: The experiment was performed using the procedures described in Justice, S. et al., Differentiation and development pathways of uropathogenic Escherichia coli in urinary tract pathogenesis.PNAS, 2004, 101(5), p. 1333-1338. Briefly, E. coli UTI89[pCOMGFP] was prepared after retrieval from frozen stocks by inoculating in LB medium statically for approximately 20 hours. Cells were harvested and suspended in 1 ml of PBS. Cells were diluted to achieve approximately a 10^8 CFU or 10^7 CFU input into C3H/HeN mice (2 mice per group).
Mice were deprived of water for approximately two hours. In experiment 1, all mice were anesthetized with 0.15 cc ketamine cocktail. In experiment 2, all mice were anesthetized with isofluorane. In experiment 1, urine was dispelled from the bladders and approximately 40 μg/ml of test compound or an appropriate amount of ethanol as control was introduced into the bladders via catheterization of the urethra using a tubing coated tuberculin syringe. 30 minutes was allowed to elapse. In experiment 2, bladders were not pre-incubated with test compounds. Bladders were then expelled and an inoculum of 10^8 CFU (Experiment 1) or 10^7 CFU (Experiment 2) of E. coli containing 40 μg/ml of test compound or equivalent amount of ethanol as controls were introduced into the bladders as indicated above.
In experiment 1 five hours elapsed and in experiment 2 six hours elapsed, and then mice were anesthetized and sacrificed. The bladders were removed, bisected, stretched, and fixed in 3% paraformaldehyde for 1 hour at room temperature. Bladders were then permeabilized in 0.01% Triton/PBS for 10 minutes and counter stained with TOPRO3 (Molecular Probes) for 10 minutes for visualization by confocal microscopy. Bladders were mounted on Prolong antifade (Molecular Probes).

[3] = test system: E. coli laboratory strain JM109; experiment: Biofilm formation inhibition, crystal violet, E. coli laboratory strain JM109; format: cell-based; settings: Escherichia coli, read-out: inhibited biofilm formation as compared to the controls
Description: (§1) Biofilm inhibition experiments were conducted using an assay adapted from the reported protocol described in Pratt and Kolter, 1998, Molecular Microbiology, 30: 285-293; Li et al., 2001, J. Bacteriol., 183: 897-908. E. coli clinical strain UTI89 was grown in LB in 96 well plates at room temperature for one or two days without shaking. E. coli laboratory strain JM109 was grown in LB plus 0.2% glucose in 96 well plates at room temperature for one day without shaking. To quantify the biofilm mass, the suspension culture was poured out and the biofilm was washed three times with water. The biofilm was stained with 0.1% crystal violet for 20 minutes. The plates were then washed three times with water. OD reading at 540 nm was measured to quantify the biofilm mass at the bottom of the wells. Then 95% ethanol was added to dissolve the dye at the bottom and on the wall and the OD reading at 540 nm was measured to quantify the total biofilm mass. To study the overall effect of the compounds (3.6 mg/mL in 100% ethanol as stock solution), it was added with the inoculation and a time course of biofilm mass was measured. Appropriate amounts of 100% ethanol were added to each sample to eliminate the effect of solvent. Each condition had 3-4 replicates on each plate and was performed over multiple days.

[4] = test system: E. coli clinical strain UTI89; experiment: Biofilm formation inhibition, crystal violet, E. coli clinical strain UTI89; format: cell-based; settings: Escherichia coli, read-out: inhibited biofilm formation as compared to the controls
Description: as §1

Question: For `C[C@H]1[C@H](C)CC[C@]2(C(=O)O)CC[C@]3(C)C(=CC[C@@H]4[C@@]5(C)C[C@@H](O)[C@H](O)[C@@](C)(CO)[C@@H]5CC[C@]43C)[C@H]12` [Asiatic acid, asiatic acid], which “average detachment of mature biofilms compared to negative controls” value [1] is on record?
Answer: approximately 50%

Question: What about the concentration at 24 h [2] of the same molecule?
Answer: ~30000 ng/g

Question: What about the “reduction in biofilm pods or intracellular bacterial communities (IBC) in the bladders of mice as compared to the controls” value (E. coli UTI89[pCOMGFP]; experiment 1: 40 μg/ml intravesical, 30 min pre-incubation, 10^8 CFU, five hours) of the same molecule?
Answer: 77%

Question: What about the “reduction in large biofilm pods or large IBC in the bladders of mice as compared to the controls” value (E. coli UTI89[pCOMGFP]; experiment 2: 40 μg/ml with inoculum, no pre-incubation, 10^7 CFU, six hours) of the same molecule?
Answer: ~60%

Question: And the inhibition at 5 µg/mL ([3]; JM 109, 5 ug/ml)?
Answer: ~70%

Question: What about the inhibition at 10 µg/mL ([3]; JM 109, 10 ug/ml) of the same molecule?
Answer: ~80%

Question: And the inhibition at 4 µg/mL ([4]; 4 ug/ml)?
Answer: ~10%

Question: And the inhibition at 8 µg/mL ([4]; 8 ug/ml)?
Answer: ~15%

Question: And the inhibition at 16 µg/mL ([4]; 16 ug/ml)?
Answer: ~50%

Question: And the inhibition at 32 µg/mL ([4]; 32 ug/ml)?
Answer: ~90%

Source: patent publication US20060264411A1, “Control of biofilm formation” (priority 2005, published 2006)
